Consider 16 compounds from patent publication US9296759B2, “Amino-oxazine and amino-dihydrothiazine compounds as beta-secretase modulators and methods of use” (AMGEN INC., priority 2011, dated 2016).

The subject of experiment [1] is Aβ40 in conditioned medium of cells stably expressing Amyloid Precursor Protein (APP). The experiment is described as follows: In vitro BACE cell-based assay (HEK cell assay, Aβ40 sandwich ELISA). The note with it: Homo sapiens, HEK293; average IC50, Aβ40, 24 h incubation. The procedure: In Vitro BACE Cell-Based Assay
The cell-based assay measures inhibition or reduction of Aβ40 in conditioned medium of test compound treated cells expressing amyloid precursor protein.
Cells stably expressing Amyloid Precursor Protein (APP) were plated at a density of 40K cells/well in 96 well plates (Costar). The cells were cultivated for 24 hours at 37° C. and 5% CO2 in DMEM supplemented with 10% FBS. The test compounds were then added to cells in 10-point dose response concentrations with the starting concentration being either 100 μM or 10 μM. The compounds were diluted from stock solutions in DMSO and the final DMSO concentration of the test compounds on cells was 0.1%. After 24 h of incubation with the test compounds the supernatant conditioned media was collected and the Aβ 40 levels were determined using a sandwich ELISA. The IC50 of the compound was calculated from the percent of control or percent inhibition of Aβ 40 as a function of the concentration of the test compound.
The sandwich ELISA to detect Aβ 40 was performed in 96 well microtiter plates, which were pre-treated with goat anti-rabbit IgG (Pierce). The capture and detecting antibody pair that were used to detect Aβ 40 from cell supernatants were affinity purified pAb40 (Biosource) and biotinylated 6E10 (Signet Labs Inc.), respectively. The optimal concentration for the pAb40 antibody was 3 μg/ml in Superblock/TBS (Pierce) that was supplemented with 0.05% Tween 20 (Sigma).
Cellular supernatants were incubated with the capture antibody for 3 h at 4° C., followed by 3 wash steps in TBS-tween (0.05%). The detecting antibody incubation was for 2 h at 4° C., again followed by the wash steps as described previously. The final readout of the ELISA is Time-Resolved Fluorescence (counts per minute) using Delfia reagents Streptavidin-Europium and Enhancement solutions (Perkin Elmer) and the Victor 2 multilabel counter (Perkin Elmer).
(ELISA stands for enzyme-linked immunosorbent assay.)

For a further experiment, the target named is Cathepsin D (Homo sapiens (Human), UniProt P07339). Briefly: In vitro enzymatic Cat D (Cathepsin D) FRET assay. Particulars: average IC50. The format is biochemical. The procedure:
In Vitro Enzymatic Cat D (Cathepsin D) FRET (Fluorescence Resonance Energy Transfer) Assay
Recombinant CathepsinD was expressed in CHO cells. The assay buffer for CathepsinD is 0.05 M citrate pH 3.5, 10% DMSO final, 5 mM CHAPS. […] The assays are effectively started by the addition of different FRET substrates (20 nM for CathepsinD) and the combination is incubated for one hour. The FRET assay is terminated with by addition of Tris buffer, which raises the pH to neutrality, and the fluorescence is determined. The FRET substrate is a peptide with commercially available fluorophore and quencher, on opposite sides of the BACE cleavage site. […] Proteolytic cleavage of the FRET substrate releases quenching of fluorescence (CathepsinD excitation 500 nm and emission 580 nm).

Experiment [2] addresses BACE 1 (beta secretase enzyme) (Homo sapiens (Human), UniProt P56817). The experiment is described as follows: In vitro enzymatic BACE FRET assay. The format is biochemical. The note with it: average IC50. As for the experimental part: In Vitro Enzymatic BACE FRET (Fluorescence Resonance Energy Transfer) Assay
The assay buffer used in this screen is 0.05 M acetate, pH 4.2, 10% DMSO final, 100 uM genapol (which is a nonionic detergent, below its Critical Micelle Concentration). […] This assay is effectively started by the addition of FRET substrate (50 nM) and the combination is incubated for one hour. The FRET assay is terminated with by addition of Tris buffer, which raises the pH to neutrality, and the fluorescence is determined. The FRET substrate is a peptide with commercially available fluorophore and quencher, on opposite sides of the BACE cleavage site. Proteolytic cleavage of the FRET substrate releases quenching of fluorescence (excitation […] and […]).

Chain of Cathepsin D (P07339 65-412, species assumed): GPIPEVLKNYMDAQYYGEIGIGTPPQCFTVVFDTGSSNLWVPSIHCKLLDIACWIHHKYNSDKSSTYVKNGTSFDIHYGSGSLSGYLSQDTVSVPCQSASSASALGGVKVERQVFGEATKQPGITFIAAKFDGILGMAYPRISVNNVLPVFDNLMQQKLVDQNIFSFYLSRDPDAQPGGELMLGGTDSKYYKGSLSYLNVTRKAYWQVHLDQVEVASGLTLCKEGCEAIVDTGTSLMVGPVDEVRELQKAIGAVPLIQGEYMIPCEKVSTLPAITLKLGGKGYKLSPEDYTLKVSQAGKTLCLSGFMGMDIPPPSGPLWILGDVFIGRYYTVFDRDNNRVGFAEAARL
Chain of BACE 1 (beta secretase enzyme) (P56817 46-501): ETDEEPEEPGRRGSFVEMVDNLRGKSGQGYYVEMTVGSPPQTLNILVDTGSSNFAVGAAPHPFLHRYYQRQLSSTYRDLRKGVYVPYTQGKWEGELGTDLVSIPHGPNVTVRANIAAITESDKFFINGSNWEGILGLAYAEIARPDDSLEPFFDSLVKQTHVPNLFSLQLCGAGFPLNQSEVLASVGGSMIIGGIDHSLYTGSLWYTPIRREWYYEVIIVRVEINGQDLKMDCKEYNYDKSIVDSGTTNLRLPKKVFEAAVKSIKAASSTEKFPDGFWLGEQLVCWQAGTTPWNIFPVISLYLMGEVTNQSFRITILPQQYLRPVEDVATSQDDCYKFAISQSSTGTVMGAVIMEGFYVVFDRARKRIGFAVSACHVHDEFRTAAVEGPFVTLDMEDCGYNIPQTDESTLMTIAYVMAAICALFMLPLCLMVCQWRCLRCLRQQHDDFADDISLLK

Usually IC50 stands for the concentration at which inhibition is half-maximal. With `N#Cc1ccc(C(=O)Nc2ccc3c(c2)[C@@]2(CCOC(N)=N2)c2cc(-c4cncc(F)c4)nc(F)c2O3)nc1` [Example 69, N-((5S)-2′-amino-1-fluoro-3-(5-fluoro-3-pyridinyl)-5′,6′-dihydrospiro[chromeno[2,3-c]pyridine-5,4′-[1,3]oxazin]-7-yl)-5-cyano-2-pyridinecarboxamide], the IC50 in experiment [1] amounted to 0.082 nM; at Cathepsin D, 133000 nM; in experiment [2], 0.6 nM.

For the compound `COc1cc(F)c2c(c1)[C@]1(CCOC(N)=N1)c1cc(NC(=O)c3ccc(C#N)cn3)ccc1O2` [Example 74, N-((4S)-2-amino-5′-fluoro-7′-methoxy-5,6-dihydrospiro[1,3-oxazine-4,9′-xanthen]-2′-yl)-5-cyano-2-pyridinecarboxamide], the IC50 in experiment [1] was determined as 4.6 nM; on Cathepsin D it was 147000 nM; in experiment [2] it was 10.8 nM.

`COc1cc(F)c2c(c1)[C@]1(CCOC(N)=N1)c1cc(NC(=O)c3ccc(Cl)cc3F)ccc1O2` [Example 76, N-((4S)-2-amino-5′-fluoro-7′-methoxy-5,6-dihydrospiro[1,3-oxazine-4,9′-xanthen]-2′-yl)-4-chloro-2-fluorobenzamide]: the values for the IC50 (in experiment [1]; at Cathepsin D; in experiment [2]) were 206 nM, 400000 nM and 181 nM, respectively.

For the compound `NC1=N[C@@]2(CCO1)c1cc(NC(=O)c3ccc(Cl)cn3)ccc1Oc1cnc(Cl)cc12` [Example 79, N-((5S)-2′-amino-3-chloro-5′,6′-dihydrospiro[chromeno[2,3-c]pyridine-5,4′-[1,3]oxazin]-7-yl)-5-chloro-2-pyridinecarboxamide], the IC50 turned out to be 9.9 nM in experiment [1], 400000 nM at Cathepsin D and 38.6 nM in experiment [2].

As for `NC1=N[C@@]2(CCO1)c1cc(NC(=O)c3ccc(F)cn3)ccc1Oc1c2cc(C2=CCCOC2)nc1F` [Example 83, N-((5S)-2′-amino-3-(5,6-dihydro-2H-pyran-3-yl)-1-fluoro-5′,6′-dihydrospiro[chromeno[2,3-c]pyridine-5,4′-[1,3]oxazin]-7-yl)-5-fluoro-2-pyridinecarboxamide], the IC50 stood at 0.4 nM in experiment [1], 255000 nM at Cathepsin D and 9.3 nM in experiment [2].

In the case of `COc1cnc(C(=O)Nc2ccc3c(c2)[C@@]2(CCOC(N)=N2)c2cc(C#CC(C)(C)C)ncc2O3)cn1` [Example 86, N-((5S)-2′-amino-3-(3,3-dimethyl-1-butyn-1-yl)-5′,6′-dihydrospiro[chromeno[2,3-c]pyridine-5,4′-[1,3]oxazin]-7-yl)-5-methoxy-2-pyrazinecarboxamide], the IC50 in experiment [1] came out at 1.2 nM; at Cathepsin D it was 452000 nM; in experiment [2] it was 12 nM.

Turning to `COc1cnc(C(=O)Nc2ccc3c(c2)[C@@]2(CCOC(N)=N2)c2cc(-c4ccnc(F)c4)ncc2O3)cn1` [Example 93, N-((5S)-2′-amino-3-(2-fluoro-4-pyridinyl)-5′,6′-dihydrospiro[chromeno[2,3-c]pyridine-5,4′-[1,3]oxazin]-7-yl)-5-methoxy-2-pyrazinecarboxamide], the IC50 amounted to 0.5 nM in experiment [1], 400000 nM at Cathepsin D and 2.9 nM in experiment [2].

As for `NC1=N[C@@]2(CCO1)c1cc(NC(=O)c3ccc(Cl)cn3)ccc1Oc1cnc(-c3ccnc(F)c3)cc12` [Example 94, N-((5S)-2′-amino-3-(2-fluoro-4-pyridinyl)-5′,6′-dihydrospiro[chromeno[2,3-c]pyridine-5,4′-[1,3]oxazin]-7-yl)-5-chloro-2-pyridinecarboxamide], the IC50 amounted to 0.7 nM in experiment [1], 400000 nM on Cathepsin D and 1.6 nM in experiment [2].

For the compound `N#Cc1ccc(C(=O)Nc2ccc3c(c2)[C@@]2(CCOC(N)=N2)c2cc(-c4ccnc(F)c4)nc(F)c2O3)nc1` [Example 100, N-((5S)-2′-amino-1-fluoro-3-(2-fluoro-4-pyridinyl)-5′,6′-dihydrospiro[chromeno[2,3-c]pyridine-5,4′-[1,3]oxazin]-7-yl)-5-cyano-2-pyridinecarboxamide], the IC50 in experiment [1] was 0.4 nM; at Cathepsin D, 518000 nM; in experiment [2], 0.6 nM.

As to `COc1cnc(C(=O)Nc2ccc3c(c2)[C@@]2(CCSC(N)=N2)c2cc(C4=CCOCC4)ncc2O3)cn1` [Example 103, N-((5S)-2′-amino-3-(3,6-dihydro-2H-pyran-4-yl)-5′,6′-dihydrospiro[chromeno[2,3-c]pyridine-5,4′-[1,3]thiazin]-7-yl)-5-methoxy-2-pyrazinecarboxamide], the IC50 in experiment [1] is 1.1 nM; at Cathepsin D, 400000 nM; in experiment [2], 1.7 nM.

Consider `COc1ccc(C(=O)Nc2ccc3c(c2)[C@@]2(CCSC(N)=N2)c2cc(O)cc(F)c2O3)nc1` [Example 105, N-((4S)-2-amino-5′-fluoro-7′-hydroxy-5,6-dihydrospiro[1,3-thiazine-4,9′-xanthen]-2′-yl)-5-methoxy-2-pyridinecarboxamide], for which the IC50 in experiment [1] was 82.3 nM; at Cathepsin D, 225000 nM; in experiment [2], 29.4 nM.

As to `COc1ccc(C(=O)Nc2ccc3c(c2)[C@@]2(CCSC(N)=N2)c2cc(N4CCOCC4)cc(F)c2O3)nc1` [Example 107, N-((4S)-2-amino-5′-fluoro-7′-(4-morpholinyl)-5,6-dihydrospiro[1,3-thiazine-4,9′-xanthen]-2′-yl)-5-methoxy-2-pyridinecarboxamide], the IC50 is 8.7 nM in experiment [1], 326000 nM at Cathepsin D and 7.8 nM in experiment [2].

For `COc1cnc(C(=O)Nc2ccc3c(c2)[C@@]2(CCSC(N)=N2)c2cc(O)cc(F)c2O3)cn1` [Example 109, N-((4S)-2-amino-5′-fluoro-7′-hydroxy-5,6-dihydrospiro[1,3-thiazine-4,9′-xanthen]-2′-yl)-5-methoxy-2-pyrazinecarboxamide], the IC50 in experiment [1] came to 64.6 nM; on Cathepsin D, 400000 nM; in experiment [2], 28.4 nM.

With `COc1cnc(C(=O)Nc2ccc3c(c2)[C@@]2(CCSC(N)=N2)c2cc(N4CCOCC4)cc(F)c2O3)cn1` [Example 110, N-((4S)-2-amino-5′-fluoro-7′-(4-morpholinyl)-5,6-dihydrospiro[1,3-thiazine-4,9′-xanthen]-2′-yl)-5-methoxy-2-pyrazinecarboxamide], the results for the IC50 (in experiment [1]; on Cathepsin D; in experiment [2]) were 7.7 nM, 229000 nM and 15.3 nM, respectively.

With `COc1ccc(C(=O)Nc2ccc3c(c2)[C@@]2(CCSC(N)=N2)c2cc(-c4cncc(F)c4)nc(F)c2O3)nc1` [Example 113, N-((5S)-2′-amino-1-fluoro-3-(5-fluoro-3-pyridinyl)-5′,6′-dihydrospiro[chromeno[2,3-c]pyridine-5,4′-[1,3]thiazin]-7-yl)-5-methoxy-2-pyridinecarboxamide], the IC50 in experiment [1] was 1.8 nM; at Cathepsin D, 120000 nM; in experiment [2], 1.1 nM.

Turning to `COc1cnc(C(=O)Nc2ccc3c(c2)[C@@]2(CCSC(N)=N2)c2cc(-c4ccnc(F)c4)nc(F)c2O3)cn1` [Example 114, N-((5S)-2′-amino-1-fluoro-3-(2-fluoro-4-pyridinyl)-5′,6′-dihydrospiro[chromeno[2,3-c]pyridine-5,4′-[1,3]thiazin]-7-yl)-5-methoxy-2-pyrazinecarboxamide], the IC50 was found to be 3.8 nM in experiment [1], 400000 nM on Cathepsin D and 3.1 nM in experiment [2].
